# According to patent US20250288564A1, “DIHYDROBERBERINE COMPOSITION AND USE THEREOF” (NANJING NUTRABUILDING BIO-TECH CO., LTD., priority 2022, published 2025):
# Experiments:
# Akkermansia muciniphila [1] = test: Relative abundance of microbiota in feces of volunteers (16s sequencing); assay type: in vivo, human; conditions: 200 mg DHB every day, 3-week experiment, FIG. 1A
# Method: (§1) Experimental method: Six volunteers (three males and three females) were recruited to obtain relevant health data, and it was confirmed that they had not taken antibiotics or probiotics in the previous three months, and were healthy and had no chronic diseases. A 3-week experiment was designed. Volunteers had 30 minutes of moderate-intensity exercise every day, and ensured regular work and rest, reasonable diet, and no smoking or drinking. They were administered 200 mg of dihydroberberine (DHB) every day, and fecal samples were collected on days 0, 7, 14 and 21 of the experiment, and the corresponding bacterial species were analyzed. Before the experiment, fecal samples of each volunteer were collected, and species information was obtained through genomic DNA extraction, PCR amplification of 16s RNA and database comparison.
# Bacteroides fragilis [2] = test: as above; assay type: in vivo, human; conditions: 200 mg DHB every day, 3-week experiment, FIG. 1A
# Method: as §1
# Desulfovibrio [3] = test: as above; assay type: in vivo, human; conditions: 200 mg DHB every day, 3-week experiment, FIG. 1B
# Method: as §1
# [4] = test system: Faecalibacterium Prausnitzii; test: as above; assay type: in vivo, human; conditions: 200 mg DHB every day, 3-week experiment, FIG. 1A
# Method: as §1
# Klebsiella pneumoniae [5] = test: as above; assay type: in vivo, human; conditions: 200 mg DHB every day, 3-week experiment, FIG. 1B
# Method: as §1
# [6] = test system: Lactobacillus acidophilus; test: as above; assay type: in vivo, human; conditions: 200 mg DHB every day, 3-week experiment, FIG. 1A
# Method: as §1
# Akkermansia muciniphila [7] = test: Relative abundance of microbiota in feces of mice (16S rDNA sequencing); assay type: in vivo; conditions: DHB 100 mg/kg gavage once a day for 4 weeks, FIG. 2A
# Excerpt: (§2) Experimental method: After a week of adaptive feeding, mice were randomly divided into four groups according to sex and weight: group 1, control group, n=10; group 2, normal+DHB group, n=10; group 3, high-fat-high-sugar group, n=10; and group 4, high-fat-high-sugar+DHB group, n=10. High-fat-high-sugar group (group 3) and high-fat-high-sugar+DHB group (group 4) were given high-fat and high-sugar feed (containing 35% fat, 18% protein and 47% carbohydrate), while the control group and normal+DHB group were given normal feed. After eight weeks, blood was taken from the tail vein to detect blood sugar, and the groups 3 and 4 were given high-fat and high-sugar feed, while the control group and normal+DHB group (groups 1 and 2) were given basic feed until the end of the experiment. Then, groups 2 and 4 were administered DHB at 100 mg/kg (dissolved in physiological saline) for 4 weeks, and fecal samples were taken on days 0, 14 and 28. The maximum dose of DHB refers to the usual dose of daily health care, and the dosage is set to 200 mg/kg. The specific gavage scheme is: dissolve DHB in water and gavage once a day according to the weight of mice, while the control group gavage with the same amount of pure water. Analysis of the relative abundance of intestinal flora: Four samples of mouse feces were randomly taken from each group. The samples were first extracted for DNA, 16S rDNA was amplified by PCR, and then sequenced. After completing the classification of data species, the relative abundance of each species was analyzed.
# Bacteroides fragilis [8] = test: as above; assay type: in vivo; conditions: DHB 100 mg/kg gavage once a day for 4 weeks, FIG. 2A
# Excerpt: as §2
# Desulfovibrio [9] = test: as above; assay type: in vivo; conditions: DHB 100 mg/kg gavage once a day for 4 weeks, FIG. 2B
# Excerpt: as §2
# [10] = test system: Faecalibacterium Prausnitzii; test: as above; assay type: in vivo; conditions: DHB 100 mg/kg gavage once a day for 4 weeks, FIG. 2A
# Excerpt: as §2
# Klebsiella pneumoniae [11] = test: as above; assay type: in vivo; conditions: DHB 100 mg/kg gavage once a day for 4 weeks, FIG. 2B
# Excerpt: as §2
# [12] = test system: Lactobacillus acidophilus; test: as above; assay type: in vivo; conditions: DHB 100 mg/kg gavage once a day for 4 weeks, FIG. 2A
# Excerpt: as §2
# [13] = test system: Bacteroides and Firmicutes; test: Abundance ratio of Bacteroides and Firmicutes in mouse feces; assay type: in vivo, mice; conditions: DHB 100 mg/kg, 4 weeks, FIG. 3
# Excerpt: as §2, with “Analysis of the relative abundance of intestinal flora: Four samples of mouse feces were randomly taken from each group. The samples were first extracted for DNA, 16S rDNA was amplified by PCR, and then sequenced.” left out, “analyzed. […]” for “analyzed.”
# Akkermansia muciniphila [14] = test: Absolute amount of Akkermansia muciniphila in mouse feces (qPCR); assay type: in vivo, mice; conditions: DHB 100 mg/kg, 4 weeks, FIG. 4
# Excerpt: Experimental method: After a week of adaptive feeding, mice were randomly divided into four groups according to sex and weight: group 1, control group, n=10; group 2, normal+DHB group, n=10; group 3, high-fat-high-sugar group, n=10; and group 4, high-fat-high-sugar+DHB group, n=10. High-fat-high-sugar group (group 3) and high-fat-high-sugar+DHB group (group 4) were given high-fat and high-sugar feed (containing 35% fat, 18% protein and 47% carbohydrate), while the control group and normal+DHB group were given normal feed. After eight weeks, blood was taken from the tail vein to detect blood sugar, and the groups 3 and 4 were given high-fat and high-sugar feed, while the control group and normal+DHB group (groups 1 and 2) were given basic feed until the end of the experiment. […]
# Determination of absolute amount of Akkermansia muciniphila in mouse feces: The colon feces of mice were collected, the absolute amount of Akkermansia mucinipha in each gram of feces was detected, and the influence of the composition of the invention on the absolute amount of Akkermansia mucinipha in the intestines of normal and high-fat-high-sugar mice was analyzed. […] The data is expressed as the logarithm of the number of bacteria per gram of feces (Log 10), and the results are shown in FIGS. 2-4.
# acute colitis model = test: DSS-induced acute colitis model in mice (DAI, colon pathology); assay type: in vivo; conditions: 3% DSS for 9 days, treatment group DSS+DHB, DHB 50 mg/kg daily
# Excerpt: Experimental method: Thirty 4-6-week-old mice, 15 males and 15 females, were selected for adaptive feeding for 7 days in advance. They were randomly divided into control group (CON), model group (DSS) and treatment group (DSS+DHB), with 10 mice in each group. The model group and the treatment group were gavaged with 3% dextran sodium sulfate (DSS) for 9 days to establish an acute colitis model, while the control group was gavaged with the same amount of normal saline every day. The weight, feces and rectal bleeding of mice were recorded every day, and the disease activity index (DAI) was used to evaluate the condition of colitis. The DAI value was obtained by adding all the scores and dividing them by three. Mice in the treatment group were given DHB at a daily dose of 50 mg/kg. On the 10th day, blood was taken from the orbit of each mouse, and then it was killed. Colon tissues were collected, fixed in 4% paraformaldehyde solution and stored at −80° C. for subsequent analysis. The pathological damage of colon tissue was examined by hematoxylin-eosin staining and Alxin blue staining. [table]
# [15] = compared with berberine, background statement; cited from earlier work
# [16] = high-fat-high-sugar mice: group 4 (+DHB) compared with group 3
# [17] = normal feed mice: group 2 (normal+DHB) compared with group 1 (control)
structure (smiles),measurement,setting,value
COc1ccc2c(c1OC)CN1CCc3cc4c(cc3C1=C2)OCO4 [dihydroberberine],increase of relative abundance level of Akkermansia muciniphila,Akkermansia muciniphila [1],0.09%
same,increase of relative abundance level of Bacteroides fragilis,Bacteroides fragilis [2],0.11%
same,decrease of relative abundance level of Desulfovibrio,Desulfovibrio [3],0.14%
same,increase of relative abundance level of Faecalibacterium Prausnitzii,[4],0.15%
same,decrease of relative abundance level of Klebsiella pneumoniae,Klebsiella pneumoniae [5],0.12%
same,increase of relative abundance level of Lactobacillus acidophilus,[6],0.20%
same,increase of relative abundance level of Akkermansia muciniphila,Akkermansia muciniphila [7],0.09%
same,increase of relative abundance level of Bacteroides fragilis,Bacteroides fragilis [8],0.10%
same,decrease of relative abundance level of Desulfovibrio,Desulfovibrio [9],0.08%
same,increase of relative abundance level of Faecalibacterium Prausnitzii,[10],0.14%
same,decrease of relative abundance level of Klebsiella pneumoniae,Klebsiella pneumoniae [11],0.11%
same,increase of relative abundance level of Lactobacillus acidophilus,[12],0.19%
same,increase of ratio of Bacteroides to Firmicutes,[13]; [16],0.51
same,increase of ratio of Bacteroides to Firmicutes,[13]; [17],0.36
same,increase of logarithm number of Akkermansia muciniphila per gram of feces,Akkermansia muciniphila [14]; [16],0.55 order of magnitude
same,increase of logarithm number of Akkermansia muciniphila per gram of feces,Akkermansia muciniphila [14]; [17],0.65 order of magnitude
same,"intestinal pathological changes (colon tissue, hematoxylin-eosin and Alxin blue staining)",acute colitis model; FIGS. 5A-5C,significantly improved the integrity of crypt structure
same,DAI score (disease activity index),acute colitis model; model group close to 3,about 1.1
same,water solubility relative to berberine,[15],higher water solubility
